Reference: ChEMBL document CHEMBL3734672, “Synthesis, cyclooxygenase inhibition, anti-inflammatory evaluation and ulcerogenic liability of novel triarylpyrazoline derivatives as selective COX-2 inhibitors” (Bioorg Med Chem Lett, 2015)

Legend:
Rattus norvegicus [1] = assay: Antiinflammatory activity in rat assessed as inhibition of carrageenan-induced paw edema at 50 mg/kg, po measured after 3hrs post carrageenan challenge; assay type: functional
[2] = Selectivity index, ratio of IC50 for ovine COX-1 to IC50 for human recombinant COX-2
[3] = molecular target: T1, Prostaglandin G/H synthase 2 (Homo sapiens, UniProt P35354); assay: Inhibition of human recombinant COX-2 preincubated for 2 mins prior to arachidonic acid addition by enzyme immuno assay
T1 sequence (P35354 whole entry): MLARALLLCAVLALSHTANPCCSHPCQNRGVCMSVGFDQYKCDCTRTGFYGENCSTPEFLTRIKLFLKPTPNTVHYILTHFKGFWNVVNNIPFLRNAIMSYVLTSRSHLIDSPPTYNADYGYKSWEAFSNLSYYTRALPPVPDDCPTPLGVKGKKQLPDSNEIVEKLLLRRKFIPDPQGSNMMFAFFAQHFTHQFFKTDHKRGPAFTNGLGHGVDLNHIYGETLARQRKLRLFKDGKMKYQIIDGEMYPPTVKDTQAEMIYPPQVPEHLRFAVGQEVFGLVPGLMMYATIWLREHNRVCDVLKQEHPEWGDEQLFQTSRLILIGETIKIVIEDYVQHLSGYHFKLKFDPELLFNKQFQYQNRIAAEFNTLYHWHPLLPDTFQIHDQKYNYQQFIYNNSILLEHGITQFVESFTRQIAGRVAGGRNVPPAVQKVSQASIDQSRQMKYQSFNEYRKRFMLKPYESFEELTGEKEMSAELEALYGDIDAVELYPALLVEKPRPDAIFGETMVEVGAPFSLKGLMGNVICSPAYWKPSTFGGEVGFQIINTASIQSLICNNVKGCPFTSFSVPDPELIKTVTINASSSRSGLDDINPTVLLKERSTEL

[4] = molecular target: T2, Prostaglandin G/H synthase 1 (Ovis aries, UniProt P05979); assay: Inhibition of ovine COX-1 preincubated for 2 mins prior to arachidonic acid addition by enzyme immuno assay
T2 sequence (P05979 whole entry): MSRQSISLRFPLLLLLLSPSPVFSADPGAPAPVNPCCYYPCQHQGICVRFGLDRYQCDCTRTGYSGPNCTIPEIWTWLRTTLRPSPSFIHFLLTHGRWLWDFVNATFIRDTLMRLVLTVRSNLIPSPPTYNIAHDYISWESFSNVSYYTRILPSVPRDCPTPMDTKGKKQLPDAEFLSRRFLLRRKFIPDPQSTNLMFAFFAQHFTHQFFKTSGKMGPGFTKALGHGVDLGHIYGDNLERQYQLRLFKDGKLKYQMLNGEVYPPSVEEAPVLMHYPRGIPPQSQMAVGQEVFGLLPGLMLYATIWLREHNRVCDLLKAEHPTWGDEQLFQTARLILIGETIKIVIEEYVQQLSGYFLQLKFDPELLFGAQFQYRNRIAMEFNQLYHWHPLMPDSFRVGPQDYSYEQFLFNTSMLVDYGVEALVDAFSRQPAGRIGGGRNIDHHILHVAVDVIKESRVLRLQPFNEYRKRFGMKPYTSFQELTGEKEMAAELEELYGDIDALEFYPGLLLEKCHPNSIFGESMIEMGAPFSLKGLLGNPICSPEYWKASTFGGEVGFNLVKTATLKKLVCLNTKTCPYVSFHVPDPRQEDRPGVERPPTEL

Rattus norvegicus [5] = assay: Gastrointestinal toxicity in rat assessed as ulcer incidence at 100 mg/kg; assay type: organism-based; conditions: in vivo
Rattus norvegicus [6] = assay: Ulcerogenic activity in rat assessed as ulcer index at 100 mg/kg; assay type: toxicity, organism-based; conditions: in vivo

Row | Ratio IC50 [2] | IC50 [3] [µM] | IC50 [4] [µM] | SMILES | inhibition in vivo at 50 mg/kg (Rattus norvegicus [1]) [%] | Activity (Rattus norvegicus [5]) [%] | UI (Rattus norvegicus [6])
1 | 3.33 | 1.62 | 5.4 | CS(=O)(=O)c1ccc(C2=NN(c3ccc(S(N)(=O)=O)cc3)C(c3ccccc3)C2)cc1 (stereo not given) | 54.3 | – | –
2 | 2.91 | 3.41 | 9.7 | CS(=O)(=O)c1ccc(C2=NN(c3ccc(S(N)(=O)=O)cc3)C(c3ccc(F)cc3)C2)cc1 (stereo not given) | 65.7 | 6 | 7.7
3 | 2.91 | 3.98 | 11.4 | CS(=O)(=O)c1ccc(C2=NN(c3ccc(C(=O)O)cc3)C(c3ccc(Cl)cc3)C2)cc1 (stereo not given) | 50.4 | – | –
4 | – | – | – | COc1ccc2c(c1)c(CC(=O)O)c(C)n2C(=O)c1ccc(Cl)cc1 [INDOMETHACIN] | – | 8.3 | 12.3
5 | 2.21 | 4.71 | 10.1 | COc1cccc(C2CC(c3ccc(S(C)(=O)=O)cc3)=NN2c2ccc(C(=O)O)cc2)c1 (stereo not given) | 31.3 | – | –
6 | 2.51 | 5.94 | 13.4 | COc1cc(C2CC(c3ccc(S(C)(=O)=O)cc3)=NN2c2ccc(C(=O)O)cc2)cc(OC)c1OC (stereo not given) | 66.2 | 5.5 | 6.85
7 | 5 | 0.98 | 4.9 | CS(=O)(=O)c1ccc(C2=NN(c3ccc(C(=O)O)cc3)C(c3ccccc3)C2)cc1 (stereo not given) | 56.4 | – | –
8 | 4.11 | 1.76 | 7.1 | COc1cccc(C2CC(c3ccc(S(C)(=O)=O)cc3)=NN2c2ccc(S(N)(=O)=O)cc2)c1 (stereo not given) | 38.3 | – | –
9 | 3.42 | 2.84 | 9.7 | CS(=O)(=O)c1ccc(C2=NN(c3ccc(C(=O)O)cc3)C(c3ccc(F)cc3)C2)cc1 (stereo not given) | 42.3 | – | –
10 | 3.1 | 2.11 | 6.5 | COc1ccc(C2CC(c3ccc(S(C)(=O)=O)cc3)=NN2c2ccc(S(N)(=O)=O)cc2)cc1 (stereo not given) | 42.4 | – | –
11 | – | – | – | Cc1ccc(-c2cc(C(F)(F)F)nn2-c2ccc(S(N)(=O)=O)cc2)cc1 [CELECOXIB] | 65.3 | 4.2 | 4.85
12 | 2.63 | 4.67 | 12.3 | COc1cc(C2CC(c3ccc(S(C)(=O)=O)cc3)=NN2c2ccc(S(N)(=O)=O)cc2)cc(OC)c1OC (stereo not given) | 73.7 | 5 | 5.92
13 | 4.11 | 1.16 | 4.7 | CS(=O)(=O)c1ccc(C2=NN(c3ccc(C(=O)O)cc3)C(c3cccs3)C2)cc1 (stereo not given) | 35.6 | – | –
14 | 4.41 | 1.98 | 8.7 | COc1ccc(C2CC(c3ccc(S(C)(=O)=O)cc3)=NN2c2ccc(S(N)(=O)=O)cc2)cc1OC (stereo not given) | 45.5 | – | –
15 | 3.11 | 2.67 | 8.3 | CS(=O)(=O)c1ccc(C2=NN(c3ccc(S(N)(=O)=O)cc3)C(c3ccc(Cl)cc3)C2)cc1 (stereo not given) | 42.4 | – | –
16 | 2.61 | 3.74 | 9.7 | COc1ccc(C2CC(c3ccc(S(C)(=O)=O)cc3)=NN2c2ccc(C(=O)O)cc2)cc1OC (stereo not given) | 6.11 | – | –
17 | 3.71 | 1.75 | 6.4 | CS(=O)(=O)c1ccc(C2=NN(c3ccc(S(N)(=O)=O)cc3)C(c3cccs3)C2)cc1 (stereo not given) | 36.4 | – | –
18 | 3.11 | 2.17 | 6.6 | COc1ccc(C2CC(c3ccc(S(C)(=O)=O)cc3)=NN2c2ccc(C(=O)O)cc2)cc1 (stereo not given) | 55.4 | – | –
